Data taken from patent US12029713B2, “Compositions and methods for the treatment of brain injury” (THE CHILDREN'S HOSPITAL OF PHILADELPHIA, priority 2013, dated 2024).

How the values were obtained:
[1] = within one hour of administration; cited from earlier work
[2] = tested on: fluid percussion injury mice; assay: Conditioned fear response (CFR) after fluid percussion injury, GTA oral gavage; format: in vivo, mouse; details: 5 mg/kg oral gavage for 5 days, CFR on day 7 (FIG. 5)
Procedure: A fluid percussion injury assay was performed. Briefly, a craniotomy was performed on anesthetized mice using a 3 mm trephine and a Luer-Hoc needle hub attached to the skull and capped. The following day, a fluid percussion injury device was employed to deliver a pulse of saline through the hub at a pressure between 1.4-2.14 atm, producing a mild to moderate percussion injury. Sham animals received all anesthesia and surgical procedures except for the fluid pulse.
Mice were allowed to recover for one day. Mice were then treated with 5 mg/kg of glyceryl triacetate (GTA) via oral gavage for 5 days. The conditioned fear response (CFR) assay was performed on day 7.

CC(=O)OCC(COC(C)=O)OC(C)=O [GTA, glyceryl triacetate]
increase of acetate levels in the brain [1]: over 15 fold
fear response (CFR) compared to mice receiving the brain injury without treatment [2]: statistically superior
